Source: PubChem BioAssay (NCI)
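The compound was tested at five concentrations on cells cultured in 96-well plates, with a 48-hour exposure period. GI50 = concentration required for 50% inhibition of growth. Definition used: TGI = concentration required for complete inhibition of growth.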

Experiments:
Assay in all cases: NCI tumour cell line growth inhibition, 48 h
786-0 renal = test system: 786-0 renal
A498 renal = test system: A498 renal
A549 NSCLC = test system: A549 NSCLC
ACHN renal = test system: ACHN renal
BT-549 breast = test system: BT-549 breast
CAKI-1 renal = test system: CAKI-1 renal
CCRF-CEM leukemia = test system: CCRF-CEM leukemia
COLO 205 colon = test system: COLO 205 colon
DU-145 prostate = test system: DU-145 prostate
EKVX NSCLC = test system: EKVX NSCLC
HCC-2998 colon = test system: HCC-2998 colon
HCT-116 colon = test system: HCT-116 colon
HCT-15 colon = test system: HCT-15 colon
HL-60(TB) leukemia = test system: HL-60(TB) leukemia
HOP-62 NSCLC = test system: HOP-62 NSCLC
HOP-92 NSCLC = test system: HOP-92 NSCLC
HS 578T breast = test system: HS 578T breast
HT29 colon = test system: HT29 colon
IGROV1 ovarian = test system: IGROV1 ovarian
K-562 leukemia = test system: K-562 leukemia
KM12 colon = test system: KM12 colon
LOX IMVI melanoma = test system: LOX IMVI melanoma
M14 melanoma = test system: M14 melanoma
MALME-3M melanoma = test system: MALME-3M melanoma
MCF7 breast = test system: MCF7 breast
MDA-MB-231 breast = test system: MDA-MB-231 breast
MDA-MB-435 = test system: MDA-MB-435
MOLT-4 leukemia = test system: MOLT-4 leukemia
NCI-H226 lung = test system: NCI-H226 lung
NCI-H23 lung = test system: NCI-H23 lung
NCI-H460 lung = test system: NCI-H460 lung
NCI-H522 lung = test system: NCI-H522 lung
NCI/ADR-RES ovarian = test system: NCI/ADR-RES ovarian
OVCAR-3 ovarian = test system: OVCAR-3 ovarian
OVCAR-4 ovarian = test system: OVCAR-4 ovarian
OVCAR-5 ovarian = test system: OVCAR-5 ovarian
OVCAR-8 ovarian = test system: OVCAR-8 ovarian
PC-3 prostate = test system: PC-3 prostate
RPMI-8226 leukemia = test system: RPMI-8226 leukemia
RXF 393 renal = test system: RXF 393 renal
SF-268 CNS = test system: SF-268 CNS
SF-295 CNS = test system: SF-295 CNS
SF-539 CNS = test system: SF-539 CNS
SK-MEL-2 melanoma = test system: SK-MEL-2 melanoma
SK-MEL-28 melanoma = test system: SK-MEL-28 melanoma
SK-MEL-5 melanoma = test system: SK-MEL-5 melanoma
SK-OV-3 ovarian = test system: SK-OV-3 ovarian
SN12C renal = test system: SN12C renal
SNB-19 CNS = test system: SNB-19 CNS
SNB-75 CNS = test system: SNB-75 CNS
SR leukemia = test system: SR leukemia
SW-620 colon = test system: SW-620 colon
T-47D breast = test system: T-47D breast
TK-10 renal = test system: TK-10 renal
U251 CNS = test system: U251 CNS
UACC-257 melanoma = test system: UACC-257 melanoma
UACC-62 melanoma = test system: UACC-62 melanoma
UO-31 renal = test system: UO-31 renal

O=Cc1cn(Cc2ccccc2)c2ccccc12
GI50 (786-0 renal): 33.1 µM
TGI (786-0 renal): 97.8 µM
GI50 (A498 renal): 0.163 µM
TGI (A498 renal): 0.389 µM
GI50 (A549 NSCLC): 35 µM
TGI (A549 NSCLC): > 100 µM
GI50 (ACHN renal): 33.6 µM
TGI (ACHN renal): > 100 µM
GI50 (BT-549 breast): 29.2 µM
TGI (BT-549 breast): > 96.8 µM
GI50 (CAKI-1 renal): < 0.0426 µM
TGI (CAKI-1 renal): 0.547 µM
GI50 (CCRF-CEM leukemia): 41.8 µM
TGI (CCRF-CEM leukemia): > 100 µM
GI50 (COLO 205 colon): 0.438 µM
TGI (COLO 205 colon): > 32.4 µM
GI50 (DU-145 prostate): > 68.2 µM
TGI (DU-145 prostate): > 100 µM
GI50 (EKVX NSCLC): 22.8 µM
TGI (EKVX NSCLC): > 81 µM
GI50 (HCC-2998 colon): 21.9 µM
TGI (HCC-2998 colon): > 100 µM
GI50 (HCT-116 colon): 13.7 µM
TGI (HCT-116 colon): > 100 µM
GI50 (HCT-15 colon): 52.4 µM
TGI (HCT-15 colon): > 100 µM
GI50 (HL-60(TB) leukemia): 16.9 µM
TGI (HL-60(TB) leukemia): > 80.5 µM
GI50 (HOP-62 NSCLC): 21.8 µM
TGI (HOP-62 NSCLC): > 100 µM
GI50 (HOP-92 NSCLC): 20.6 µM
TGI (HOP-92 NSCLC): > 100 µM
GI50 (HS 578T breast): 30.5 µM
TGI (HS 578T breast): > 100 µM
GI50 (HT29 colon): 61.5 µM
TGI (HT29 colon): > 100 µM
GI50 (IGROV1 ovarian): 0.5 µM
TGI (IGROV1 ovarian): > 38.1 µM
GI50 (K-562 leukemia): 18.7 µM
TGI (K-562 leukemia): > 100 µM
GI50 (KM12 colon): 53.3 µM
TGI (KM12 colon): > 100 µM
GI50 (LOX IMVI melanoma): 24.4 µM
TGI (LOX IMVI melanoma): > 100 µM
GI50 (M14 melanoma): 43.4 µM
TGI (M14 melanoma): > 100 µM
GI50 (MALME-3M melanoma): > 56 µM
TGI (MALME-3M melanoma): > 100 µM
GI50 (MCF7 breast): 30.7 µM
TGI (MCF7 breast): > 100 µM
GI50 (MDA-MB-231 breast): 38.7 µM
TGI (MDA-MB-231 breast): > 100 µM
GI50 (MDA-MB-435): 46.2 µM
TGI (MDA-MB-435): > 100 µM
GI50 (MOLT-4 leukemia): 21.1 µM
TGI (MOLT-4 leukemia): > 100 µM
GI50 (NCI-H226 lung): 0.916 µM
TGI (NCI-H226 lung): 3.72 µM
GI50 (NCI-H23 lung): 37.9 µM
TGI (NCI-H23 lung): > 100 µM
GI50 (NCI-H460 lung): 0.279 µM
TGI (NCI-H460 lung): > 100 µM
GI50 (NCI-H522 lung): > 100 µM
TGI (NCI-H522 lung): > 100 µM
GI50 (NCI/ADR-RES ovarian): 35.7 µM
TGI (NCI/ADR-RES ovarian): > 100 µM
GI50 (OVCAR-3 ovarian): 21 µM
TGI (OVCAR-3 ovarian): > 67.5 µM
GI50 (OVCAR-4 ovarian): 5.83 µM
TGI (OVCAR-4 ovarian): > 100 µM
GI50 (OVCAR-5 ovarian): 0.238 µM
GI50 (OVCAR-8 ovarian): 43.5 µM
TGI (OVCAR-8 ovarian): > 100 µM
GI50 (PC-3 prostate): 35.7 µM
TGI (PC-3 prostate): > 100 µM
GI50 (RPMI-8226 leukemia): 6.39 µM
TGI (RPMI-8226 leukemia): 47.7 µM
GI50 (RXF 393 renal): > 47.7 µM
TGI (RXF 393 renal): 97.7 µM
GI50 (SF-268 CNS): 52.1 µM
TGI (SF-268 CNS): > 100 µM
GI50 (SF-295 CNS): 5.15 µM
TGI (SF-295 CNS): > 63.4 µM
GI50 (SF-539 CNS): 43.7 µM
TGI (SF-539 CNS): > 100 µM
GI50 (SK-MEL-2 melanoma): 8.62 µM
TGI (SK-MEL-2 melanoma): 60.6 µM
GI50 (SK-MEL-28 melanoma): > 57.8 µM
TGI (SK-MEL-28 melanoma): > 100 µM
GI50 (SK-MEL-5 melanoma): 18.7 µM
TGI (SK-MEL-5 melanoma): > 70 µM
GI50 (SK-OV-3 ovarian): 4.04 µM
TGI (SK-OV-3 ovarian): > 100 µM
GI50 (SN12C renal): 49.2 µM
TGI (SN12C renal): > 100 µM
GI50 (SNB-19 CNS): 75.4 µM
TGI (SNB-19 CNS): > 100 µM
GI50 (SNB-75 CNS): 27.1 µM
TGI (SNB-75 CNS): > 100 µM
GI50 (SR leukemia): > 35.4 µM
TGI (SR leukemia): > 82 µM
GI50 (SW-620 colon): 45.6 µM
TGI (SW-620 colon): > 100 µM
GI50 (T-47D breast): 3.12 µM
TGI (T-47D breast): > 100 µM
GI50 (TK-10 renal): 0.946 µM
TGI (TK-10 renal): 9 µM
GI50 (U251 CNS): 31.5 µM
TGI (U251 CNS): > 100 µM
GI50 (UACC-257 melanoma): 3.44 µM
TGI (UACC-257 melanoma): 19.5 µM
GI50 (UACC-62 melanoma): 2.31 µM
TGI (UACC-62 melanoma): 19.4 µM
GI50 (UO-31 renal): 18.2 µM
TGI (UO-31 renal): > 100 µM
